From patent US20060111341A1, “Use of galanthamine and the derivatives thereof in the production of medicaments” (priority 2003, published 2006) come the findings set out here.

SMILES strings stand for the structures.

Usually IC50 stands for the midpoint of a concentration-inhibition curve. A higher IC50 goes with a need for much substance.

Test [1] addresses Butyrylcholinesterase (Homo sapiens, UniProt P06276). Nature of the test: biochemical.
In test [2] the target is Acetylcholinesterase (Homo sapiens, UniProt P22303). Nature of the test: biochemical.
Chain of Acetylcholinesterase (P22303 32-614): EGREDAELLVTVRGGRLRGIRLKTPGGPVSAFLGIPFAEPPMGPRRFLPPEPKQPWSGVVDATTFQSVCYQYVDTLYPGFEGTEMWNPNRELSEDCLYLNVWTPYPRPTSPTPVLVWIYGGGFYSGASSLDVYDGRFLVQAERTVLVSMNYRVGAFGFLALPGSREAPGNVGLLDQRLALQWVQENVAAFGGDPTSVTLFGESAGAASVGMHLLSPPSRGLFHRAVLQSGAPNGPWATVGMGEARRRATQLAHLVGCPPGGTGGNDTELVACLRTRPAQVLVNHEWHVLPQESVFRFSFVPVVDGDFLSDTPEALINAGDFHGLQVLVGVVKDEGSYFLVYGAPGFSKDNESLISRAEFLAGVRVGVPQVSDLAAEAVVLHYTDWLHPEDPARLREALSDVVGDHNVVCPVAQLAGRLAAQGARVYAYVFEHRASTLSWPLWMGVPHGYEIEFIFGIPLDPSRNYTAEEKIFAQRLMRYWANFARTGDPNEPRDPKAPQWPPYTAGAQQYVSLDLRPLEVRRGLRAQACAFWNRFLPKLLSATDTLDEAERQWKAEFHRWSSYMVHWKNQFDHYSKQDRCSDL

Chain of Butyrylcholinesterase (P06276 29-602): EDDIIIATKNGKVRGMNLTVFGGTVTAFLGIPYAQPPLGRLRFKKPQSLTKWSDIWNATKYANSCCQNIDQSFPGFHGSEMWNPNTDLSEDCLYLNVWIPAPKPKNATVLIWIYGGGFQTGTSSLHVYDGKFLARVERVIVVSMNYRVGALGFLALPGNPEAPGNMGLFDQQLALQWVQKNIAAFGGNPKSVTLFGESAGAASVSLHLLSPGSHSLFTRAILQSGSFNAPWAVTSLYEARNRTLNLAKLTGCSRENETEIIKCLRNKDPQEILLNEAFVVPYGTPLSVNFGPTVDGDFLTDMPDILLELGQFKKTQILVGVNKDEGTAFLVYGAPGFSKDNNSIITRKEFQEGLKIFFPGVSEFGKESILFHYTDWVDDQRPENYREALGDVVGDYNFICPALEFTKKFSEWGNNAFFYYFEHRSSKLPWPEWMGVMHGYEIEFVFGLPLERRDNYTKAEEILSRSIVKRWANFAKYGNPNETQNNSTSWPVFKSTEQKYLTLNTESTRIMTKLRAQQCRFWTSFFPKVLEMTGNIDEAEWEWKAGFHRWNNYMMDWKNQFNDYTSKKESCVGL

For `COc1ccc2c3c1OC1C[C@@H](O)C=CC31CCN(c1nc(OCCCN(C)C)nc(OCCCN(C)C)n1)C2` (mixture of isomers) [Nr 94], the values for the IC50 in test [1] and in test [2] were 40 µM and 70 µM, respectively.
On to `CCN(CC)c1nc(N(CC)CC)nc(N2CCC34C=C[C@H](O)CC3Oc3c(OC)ccc(c34)C2)n1` (mixture of isomers) [Nr 95], for which the IC50 in test [1] was greater than 100 µM; in test [2] it was 40 µM.
As to `COc1ccc2c3c1OC1C[C@@H](O)C=CC31CCN(c1ccnc(OCCCN(C)C)n1)C2` (mixture of isomers) [Nr 96], the IC50 in test [1] was determined as 36 µM; in test [2], 7.4 µM.
In the case of `CCN(CC)c1nccc(N2CCC34C=C[C@H](O)CC3Oc3c(OC)ccc(c34)C2)n1` (mixture of isomers) [Nr 97], the IC50 is greater than 100 µM in test [1] and 25 µM in test [2].
In the case of `COc1ccc2c3c1OC1C[C@@H](O)C=CC31CCN(CCC(=O)NC(C)(C)C)C2` (mixture of isomers) [Nr 101], the IC50 in test [1] was 26 µM; in test [2] it was 45 µM.
The corresponding values for `C=C(C)C[N+]1(C)CCC23C=C[C@@H](O)CC2Oc2c(OC)cc(C)c(c23)C1` (mixture of isomers) [Nr 102] are 95 µM and greater than 100 µM.
Consider `C#CC[N+]1(C)CCC23C=C[C@@H](O)CC2Oc2c(OC)cc(C)c(c23)C1` (mixture of isomers) [Nr 103], for which the IC50 in test [1] is 45 µM; in test [2], 59 µM.
Take `C=CC[N+]1(C)CCC23C=C[C@@H](O)CC2Oc2c(OC)cc(C)c(c23)C1` (mixture of isomers) [Nr 104]: the figures for the IC50 in test [1] and in test [2] were 52 µM and greater than 100 µM, respectively.
In the same order, the values of `COc1cc(C)c2c3c1OC1C[C@H](O)C=CC31CC[N+](C)(Cc1ccc(C(F)(F)F)cc1)C2` (mixture of isomers) [Nr 105] are 5.4 µM and 60 µM.
Consider `COc1cc(C)c2c3c1OC1C[C@H](O)C=CC31CC[N+](C)(Cc1ccccc1)C2` (mixture of isomers) [Nr 106], for which the IC50 in test [1] was 3 µM; in test [2], greater than 100 µM.
In the same order, the values of `COc1cc(C)c2c3c1OC1C[C@@H](O)C=CC31CC[N+](C)(C)C2` (mixture of isomers) [Nr 107] are 14 µM and greater than 100 µM.
`COC(=O)/C=C(\C(=O)OC)N1CCC23C=C[C@H](O)CC2Oc2c(OC)ccc(c23)C1` (mixture of isomers) [Nr 108]: the IC50 in test [1] is 80 µM; in test [2], 140 µM.
With `COc1ccc2c3c1OC1C[C@@H](O)C=CC31CCN(CCC(=O)NC(C)C)C2` (mixture of isomers) [Nr 109], the IC50 in test [1] was 36 µM; in test [2] it was 54.5 µM.
Turning to `CCOC(=O)/C=C/N1CCC23C=C[C@H](O)CC2Oc2c(OC)ccc(c23)C1` (mixture of isomers) [Nr 110], the IC50 in test [1] is greater than 100 µM; in test [2], 50 µM.
On to `COc1ccc2c3c1OC1C[C@@H](O)C=CC31CCN(C(=O)N[C@H](C)c1ccccc1)C2` (mixture of isomers) [Nr 112], for which the IC50 is greater than 100 µM in test [1] and 30 µM in test [2].
With `COc1ccc2c3c1OC1C[C@@H](O)C=CC31CCC(N)C2` (mixture of isomers) [Nr 140], the IC50 in test [1] is greater than 100 µM; in test [2] it was 5.3 µM.
For `COc1cc(C)c2c3c1OC1C[C@@H](O)C=CC31CCN(C)C2C#N` (mixture of isomers) [Nr 145], the IC50 was greater than 100 µM in test [1] and 80 µM in test [2].
`CCCCNC(=O)O[C@H]1C=C[C@@]23CCN(C)Cc4ccc(OC)c(c42)O[C@H]3C1` [Nr 1]: the IC50 was 4.8 µM in test [1] and greater than 100 µM in test [2].
The corresponding values for `COc1ccc2c3c1O[C@@H]1C[C@H](O)C=C[C@]31CC[N+](C)(CCN1CCOCC1)C2` (some centres unmarked) [Nr 12] are 13 µM and 57 µM.
As for `C#CC[N+]1(C)CC[C@@]23C=C[C@H](O)C[C@@H]2Oc2c(OC)ccc(c23)C1` (some centres unmarked) [Nr 16], the IC50 in test [1] amounted to 1.7 µM; in test [2], 1.4 µM.
For `COc1cc([N+](=O)[O-])c2c3c1O[C@H]1C[C@@H](O)C=C[C@@]31CCN(C)C2` [Nr 45], the IC50 in test [1] was 25 µM; in test [2], greater than 100 µM.
In the same order, the values of `COc1cc(N)c2c3c1O[C@H]1C[C@@H](O)C=C[C@@]31CCN(C)C2` [Nr 48] are 4.9 µM and 77 µM.
`COc1ccc2c3c1O[C@H]1C[C@@H](O)C=C[C@@]31CC[N+](C)(CC1CC1)C2` (some centres unmarked) [Nr 53]: the IC50 in test [1] was determined as 3.6 µM; in test [2], 1.2 µM.
Turning to `COc1ccc2c3c1O[C@H]1C[C@@H](O)C=C[C@@]31CC[N+](C)(CC=C(C)C)C2` (some centres unmarked) [Nr 54], the IC50 was determined as 0.21 µM in test [1] and 0.2 µM in test [2].
On to `COc1cc(N(C)C)c2c3c1O[C@H]1C[C@@H](O)C=C[C@@]31CCN(C)C2` [Nr 56], for which the IC50 was 0.47 µM in test [1] and greater than 100 µM in test [2].
`COc1ccc2c3c1O[C@H]1C[C@@H](O)C=C[C@@]31CC[N+](C)(Cc1ccc(Br)cc1)C2` (some centres unmarked) [Nr 58]: the IC50 was found to be 0.6 µM in test [1] and 0.2 µM in test [2].
In the same order, the values of `COc1ccc2c3c1O[C@H]1C[C@H](N)C=C[C@@]31CCN(C)C2` [Nr 84] are 6 µM and 40 µM.
Consider `COc1ccc2c3c1O[C@H]1C[C@@H](O)C=C[C@@]31CCN(C(=O)Nc1ccccc1C(F)(F)F)C2` [Nr 111], for which the IC50 in test [1] is greater than 100 µM; in test [2], 30 µM.
`COc1ccc2c3c1O[C@H]1C[C@@H](O)C=C[C@@]31CCN(C(N)=O)C2` [Nr 113]: the IC50 in test [1] is greater than 100 µM; in test [2] it was 44 µM.
In the same order, the values of `COc1ccc2c3c1O[C@H]1C[C@@H](O)C=C[C@@]31CCN(C(=O)NC(C)C)C2` [Nr 114] are 10 µM and 2.6 µM.
As to `COc1ccc2c3c1O[C@H]1C[C@@H](O)C=C[C@@]31CCN(C(=O)NC(C)(C)C)C2` [Nr 115], the results for the IC50 in test [1] and in test [2] were 7 µM and 2.5 µM, respectively.
As to `COc1ccc2c3c1O[C@H]1C[C@@H](O)C=C[C@@]31CCN(/C(=N/C#N)SC)C2` [Nr 117], the IC50 in test [1] came out at 30 µM; in test [2] it was 6.7 µM.
As to `CN1CC[C@@]23C=C[C@H](O)C[C@@H]2Oc2c(Oc4ccccc4)ccc(c23)C1` [Nr 118], the IC50 in test [1] was found to be 3.4 µM; in test [2], 21 µM.
In the case of `COc1ccc2c3c1O[C@H]1C[C@@H](O)C=C[C@@]31CCN(CCC(=O)O)C2` [Nr 120], the IC50 in test [1] was found to be 40 µM; in test [2] it was 42 µM.
Regarding `COc1ccc2c3c1O[C@H]1C[C@@H](O)C=C[C@@]31CCN(c1ccccc1)C2` [Nr 123], the figures for the IC50 in test [1] and in test [2] were 0.24 µM and 0.5 µM, respectively.
As for `COc1ccc2c3c1O[C@H]1C[C@@H](O)C=C[C@@]31CCN(c1cccs1)C2` [Nr 124], the IC50 in test [1] is 0.54 µM; in test [2], 4 µM.
Regarding `COc1ccc2c3c1O[C@@H]1C[C@H](O)C=C[C@]31CCN(C(=O)NC(C)C)C2` [Nr 126], the IC50 in test [1] worked out at 90 µM; in test [2], 8 µM.
Turning to `COc1ccc2c3c1O[C@H]1C[C@@H](O)C=C[C@@]31CC[N+](C)=C2` [Nr 127], the IC50 in test [1] came out at 1.5 µM; in test [2] it was 0.3 µM.
Regarding `COc1ccc2c3c1O[C@H]1C[C@@H](O)C=C[C@@]31CCN(CCCN1CCCCC1)C2` [Nr 128], the IC50 in test [1] stood at 1.5 µM; in test [2], 0.3 µM.
With `CNC(=S)N1CC[C@@]23C=C[C@H](O)C[C@@H]2Oc2c(OC)ccc(c23)C1` [Nr 129], the IC50 in test [1] is 63 µM; in test [2], 18.5 µM.
In the same order, the values of `CC(C)NC(=O)N1CC[C@@]23C=C[C@H](O)C[C@@H]2Oc2c(O)ccc(c23)C1` [Nr 130] are 60 µM and 6.3 µM.
Turning to `COc1ccc2c3c1O[C@H]1C[C@@H](O)C=C[C@@]31CCN(CC1CC1)C2` [Nr 131], the figures for the IC50 in test [1] and in test [2] were 1.2 µM and 0.7 µM, respectively.
As to `COc1ccc2c3c1O[C@H]1C[C@@H](O)C=C[C@@]31CCN(C)C2C#N` (some centres unmarked) [Nr 133], the half-inhibitory concentration (IC50) in test [1] was greater than 100 µM; in test [2] it was 0.8 µM.
For `COc1ccc2c3c1O[C@H]1C[C@@H](O)C=C[C@@]31CCN(C)C2C` (some centres unmarked) [Nr 135], the IC50 stood at 25 µM in test [1] and 4.2 µM in test [2].
With `COc1ccc2c3c1O[C@H]1C[C@@H](O)C=C[C@@]31CCN(C(=O)Oc1ccccc1)C2` [Nr 137], the values for the half-maximal inhibitory concentration (IC50) in test [1] and in test [2] were greater than 100 µM and 46 µM, respectively.
For the compound `COc1cc(C)c2c3c1O[C@H]1C[C@H](O)C=C[C@@]31CCN(CCCN1CCCCC1)C2` [Nr 138], the IC50 in test [1] is 70 µM; in test [2] it was greater than 100 µM.
Regarding `COc1ccc2c3c1O[C@H]1C[C@@H](O)C=C[C@@]31CCN(C(=O)OC(C)(C)C)C2` [Nr 139], the IC50 in test [1] is greater than 100 µM; in test [2], 23 µM.
Consider `COc1ccc2c3c1O[C@H]1C[C@@H](O)C=C[C@@]31CCN(CCN)C2` [Nr 141], for which the IC50 in test [1] amounted to 2.1 µM; in test [2], 1.3 µM.
In the same order, the values of `COc1ccc2c3c1O[C@H]1C[C@@H](O)C=C[C@@]31CCN(CCCN1CC3CC1CN3c1ccc(F)cc1)C2` (some centres unmarked) [Nr 142] are 2.4 µM and 3 µM.
In the case of `COc1ccc2c3c1O[C@H]1C[C@@H](O)C=C[C@@]31CCN(CC(=O)N1CC3CC1CN3c1ccccc1)C2` (some centres unmarked) [Nr 143], the IC50 in test [1] stood at 2.4 µM; in test [2], 8.4 µM.
With `COc1ccc2c3c1O[C@H]1C[C@@H](O)C=C[C@@]31CCN(CCCO)C2` [Nr 144], the figures for the IC50 in test [1] and in test [2] were 5 µM and 2.8 µM, respectively.
With `C=CCCC(=O)N1CC[C@@]23C=C[C@H](O)C[C@@H]2Oc2c(OC)ccc(c23)C1` [Nr 147], the results for the IC50 in test [1] and in test [2] were 2.6 µM and 8.4 µM, respectively.
Consider `COc1ccc2c3c1O[C@H]1C[C@@H](O)C=C[C@@]31CCN(C1CCN(C(=O)c3ccccc3)CC1)C2` [Nr 148], for which the IC50 in test [1] was found to be 3 µM; in test [2], 24 µM.
The corresponding values for `COc1ccc2c3c1O[C@H]1C[C@@H](O)C=C[C@@]31CCN(C(=S)Oc1ccccc1)C2` [Nr 149] are greater than 100 µM and 7.2 µM.
The corresponding values for `COc1ccc2c3c1O[C@@H]1C[C@H](O)C=C[C@]31CCN(CCCN1CCCCC1)C2` [Nr 153] are 23 µM and 9 µM.
